Source: patent publication US8835421B2, “Benzimidazole linked pyrrolo[2,1-c[1,4] benzodiazepine hybrids as potential antitumour agents and process for the preparation thereof” (Council of Scientific and Industrial Research, priority 2008, dated 2014)

Assays:
[1] = test system: calf thymus DNA (CT-DNA); assay: Thermal denaturation studies with duplex-form calf thymus DNA; assay type: binding; details: [PBD]:[DNA] 1:5, CT-DNA 100 μM, ligand 20 μM, sodium phosphate buffer pH 7.00; for ΔTm after incubation at 37° C. for 0 h: 0 h incubation at 37° C.; for ΔTm after incubation at 37° C. for 18 h: 18 h incubation at 37° C.
Method: Compounds have been subjected to thermal denaturation studies with duplex-form calf thymus DNA (CT-DNA) using an modification of a reported procedure (Newman, M. S. Carcinog-compr. Surv. 1976, 1, 203; (b) Hecht, S. S.; Loy, M.; Hoffman, Carcinog-compr. Surv. 1976, 1, 325). Working solutions in aqueous buffer (10 mM NaH2PO4/Na2HPO4, 1 mM Na2EDTA, pH 7.00+0.01) containing CT-DNA (100 μm in phosphate) and the PBD (20 μm) have been prepared by addition of concentrated PBD solutions in DMSO to obtain a fixed [PBD]/[DNA] molar ratio of 1:5. The DNA-PBD solutions have been incubated at 37° C. for 0 and 18 h prior to analysis. Samples have been, monitored at 260 nm using a Beckman DU-800 spectrophotometer fitted with high performance temperature controller, and heated at 1° C. min^−1 in the 40-110° C. range. DNA helix→coil transition temperatures (Tm) have been obtained from the maxima in the d(A260)/d T derivative plots. Drug-induced alterations in DNA melting behavior are given by: ΔTm=Tm(DNA+PBD)−Tm(DNA alone), where the Tm value for the PBD-free CT-DNA is 69.1±0.01.
The DNA binding activity for these novel C8-linked benzimidazole-PBD hybrids has been examined by thermal denaturation studies using calf thymus (CT) DNA. […] The data for the compounds 8a-g, 11a-d and 14 is included in Table 1 for comparison.

[2] = test system: sixty human tumour cells; assay: NCI in vitro anticancer screen (SRB, 48 h), mean graph midpoints over all cell lines; assay type: cell-based; details: 48 h continuous drug exposure, SRB assay; for Log10LC50 mean graph midpoint (MG_MID): 50% cell death; for Log10GI50 mean graph midpoint (MG_MID): 50% cell growth inhibition; for Log10TGI mean graph midpoint (MG_MID): total cell growth inhibition
Method: (§1) Anticancer activity: In vitro biological activity studies were carried out at the National Cancer Institute (USA).
(§2) The compounds were evaluated for in vitro anticancer activity against sixty human tumour cells derived from nine cancer types (leukemia, non-small-cell lung, colon, CNS, melanoma, ovarian, prostate, and breast cancer) as shown in Table 3. For each compound, dose response curves for each cell line were measured at a minimum of five concentrations at 10 fold dilutions. A protocol of 48 h continuous drug exposure was used and a sulforhodamine B (SRB) protein assay was used to estimate cell viability or growth. The concentration causing 50% cell growth inhibition (GI50), total cell growth inhibition (TGI 0% growth) and 50% cell death (LC50, −50% growth) compared with the control was calculated. The mean graph midpoint values of log10 TGI and log10 LC50 as well as log10 GI50 for 8c, 8e, 11a, 11c and 14 are listed in Table 2.

[3] = test system: Breast cancer cell lines; assay: NCI in vitro anticancer screen (SRB, 48 h), breast; assay type: cell-based, human; details: Homo sapiens, average of six to nine cell lines, read-out: Log10 GI50 (converted)
Method: as §1, §2
(§3) Each cancer type represents the average of six to nine different cancer cell lines.

[4] = test system: Renal cancer cell lines; assay: NCI in vitro anticancer screen (SRB, 48 h), renal; assay type: cell-based, human; details: Homo sapiens, average of six to nine cell lines, read-out: Log10 GI50 (converted)
Method: as §1, §2, §3

[5] = test system: Leukemia cancer cell lines; assay: NCI in vitro anticancer screen (SRB, 48 h), leukemia; assay type: cell-based, human; details: Homo sapiens, average of six to nine cell lines, read-out: Log10 GI50 (converted)
Method: as §1, §2, §3

[6] = test system: CNS cancer cell lines; assay: NCI in vitro anticancer screen (SRB, 48 h), CNS; assay type: cell-based, human; details: Homo sapiens, average of six to nine cell lines, read-out: Log10 GI50 (converted)
Method: as §1, §2, §3

[7] = test system: Melanoma cancer cell lines; assay: NCI in vitro anticancer screen (SRB, 48 h), melanoma; assay type: cell-based, human; details: Homo sapiens, average of six to nine cell lines, read-out: Log10 GI50 (converted)
Method: as §1, §2, §3

[8] = test system: Non-small-cell-lung cancer cell lines; assay: NCI in vitro anticancer screen (SRB, 48 h), non-small-cell lung; assay type: cell-based, human; details: Homo sapiens, average of six to nine cell lines, read-out: Log10 GI50 (converted)
Method: as §1, §2, §3

[9] = test system: Colon cancer cell lines; assay: NCI in vitro anticancer screen (SRB, 48 h), colon; assay type: cell-based, human; details: Homo sapiens, average of six to nine cell lines, read-out: Log10 GI50 (converted)
Method: as §1, §2, §3

[10] = test system: Ovarian cancer cell lines; assay: NCI in vitro anticancer screen (SRB, 48 h), ovarian; assay type: cell-based, human; details: Homo sapiens, average of six to nine cell lines, read-out: Log10 GI50 (converted)
Method: as §1, §2, §3

[11] = test system: Prostate cancer cell lines; assay: NCI in vitro anticancer screen (SRB, 48 h), prostate; assay type: cell-based, human; details: Homo sapiens, average of six to nine cell lines, read-out: Log10 GI50 (converted)
Method: as §1, §2, §3

Row | SMILES | ΔTm after incubation at 37° C. for 0 h [1] [°C] | ΔTm after incubation at 37° C. for 18 h [1] [°C] | Log10LC50 mean graph midpoint (MG_MID) [2] | Log10GI50 mean graph midpoint (MG_MID) [2] | Log10TGI mean graph midpoint (MG_MID) [2] | GI50 [3] [µM] | GI50 [4] [µM] | GI50 [5] [µM] | GI50 [6] [µM] | GI50 [7] [µM] | GI50 [8] [µM] | GI50 [9] [µM] | GI50 [10] [µM] | GI50 [11] [µM]
1 | COc1cc2c(cc1OCCCCCn1c(-c3ccccn3)nc3ccccc31)N=C[C@@H]1CCCN1C2=O [Compound 11b, 7-Methoxy-8-{5-[2-(2-pyridyl)-1H-benzimidazol-1-yl]pentyl}oxy-(11aS)-1,2,3,11a-tetrahydro-5H-pyrrolo[2,1-c][1,4]benzodiazepin-5-one] | 1.0 | 1.2 |  |  |  |  |  |  |  |  |  |  |  | 
2 | COc1cc2c(cc1OCCCCn1c(-c3cccs3)nc3ccccc31)N=C[C@@H]1CCCN1C2=O [Compound 8e, 7-Methoxy-8-{4-[2-(2-thienyl)-1H-benzimidazol-1-yl]butyl}oxy-(11aS)-1,2,3,11a-tetrahydro-5H-pyrrolo[2,1-c][1,4]benzodiazepin-5-one] | 0.1 | 1.0 | −4.51 | −5.81 | −5.18 | 0.912 | 1.58 | 1 | 1.58 | 1.58 | 2.09 | 1.95 | 2 | 1.32
3 | COc1cc2c(cc1OCCCCCn1c(-c3ccc(OCc4ccccc4)cc3)nc3ccc(N4CCOCC4)cc31)N=C[C@@H]1CCCN1C2=O [Compound 11c, 7-Methoxy-8-{5-[2-[(4-(benzyloxy)phenyl)-6-morpholino]benzimidazol-1-yl]pentyl}oxy-(11aS)-1,2,3,11a-tetrahydro-5H-pyrrolo[2,1-c][1,4]benzodiazepin-5-one] | 2.9 | 3.2 | −4.24 | −5.83 | −5.00 | 1.55 | 0.759 | 0.603 | 2.69 | 1.55 | 1.95 | 2.29 | 2.19 | 2.19
4 | COc1cc2c(cc1OCCCn1c(-c3cccn3C)nc3ccccc31)N=C[C@@H]1CCCN1C2=O [Compound 8g, 7-Methoxy-8-{3-[2-(1-Methyl-2-pyrrolyl)-1H-benzimidazol-1,4]propyl}-oxy-(11aS)-1,2,3,11a-tetrahydro-5H-pyrrolo[2,1-c][1,4]benzodiazepin-5-one] | 2.0 | 3.1 |  |  |  |  |  |  |  |  |  |  |  | 
5 | COc1cc2c(cc1OCCCn1c(-c3cccs3)nc3ccccc31)N=C[C@@H]1CCCN1C2=O [Compound 8d, 7-Methoxy-8-{3-[2-(2-thienyl)-1H-benzimidazol-1-yl]propyl}oxy-(11aS)-1,2,3,11a-tetrahydro-5H-pyrrolo[2,1-c][1,4]benzodiazepin-5-one] | 3.9 | 5.1 |  |  |  |  |  |  |  |  |  |  |  | 
6 | COc1cc2c(cc1O)N=CC1CCCN1C2=O (stereo not drawn) [DC-81, reference compound] | 0.3 | 0.7 |  |  |  |  |  |  |  |  |  |  |  | 
